Data as given in patent publication US7183280B2, “Bicyclic imidazole derivatives, the preparation thereof and their use as pharmaceutical compositions” (Boehringer Ingelheim International GmbH, priority 2004, dated 2007).

Target: T1, DPP-IV (Homo sapiens, UniProt P27487)
T1 construct: an extract of the human colon carcinoma cell line Caco-2 is used as the DPP IV source; endogenous in cells; host or cells: Caco-2 (human colon carcinoma), differentiated to induce DPP-IV expression; Nonidet-P40 solubilised extract
T1 sequence (P27487 whole entry): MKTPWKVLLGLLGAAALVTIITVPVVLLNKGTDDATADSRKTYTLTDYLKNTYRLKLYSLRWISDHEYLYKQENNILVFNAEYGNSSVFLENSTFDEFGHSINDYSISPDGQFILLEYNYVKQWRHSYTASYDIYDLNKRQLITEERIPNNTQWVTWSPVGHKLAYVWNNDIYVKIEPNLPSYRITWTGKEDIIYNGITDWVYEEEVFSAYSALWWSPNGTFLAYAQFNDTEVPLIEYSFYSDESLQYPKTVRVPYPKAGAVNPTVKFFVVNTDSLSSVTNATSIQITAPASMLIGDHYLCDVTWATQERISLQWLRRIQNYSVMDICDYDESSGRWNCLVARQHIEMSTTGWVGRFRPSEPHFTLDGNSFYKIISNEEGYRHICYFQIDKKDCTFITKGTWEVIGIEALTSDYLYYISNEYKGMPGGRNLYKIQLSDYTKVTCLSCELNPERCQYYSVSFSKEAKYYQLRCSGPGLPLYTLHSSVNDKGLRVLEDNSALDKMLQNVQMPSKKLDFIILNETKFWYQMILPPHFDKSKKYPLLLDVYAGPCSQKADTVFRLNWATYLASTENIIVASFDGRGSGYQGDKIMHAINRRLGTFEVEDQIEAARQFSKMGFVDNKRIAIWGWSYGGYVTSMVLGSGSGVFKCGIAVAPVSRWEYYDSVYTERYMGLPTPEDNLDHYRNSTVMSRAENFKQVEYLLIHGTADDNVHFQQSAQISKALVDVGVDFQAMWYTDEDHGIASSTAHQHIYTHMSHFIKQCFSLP
Assay: DPP-IV assay with Caco-2 cell extract, AFC substrate, fluorescence
Assay type: biochemical
Conditions: extract of human colon carcinoma cell line Caco-2 as DPP IV source; AFC substrate 100 μM; 60 minutes, ambient temperature; read-out: DPP IV inhibition IC50
Experimental: The differentiation of the cells in order to induce the DPP-IV expression was carried out in accordance with the description by Reiher et al. in an article entitled “Increased expression of intestinal cell line Caco-2”, which appeared in Proc. Natl. Acad. Sci. Vol. 90, pp. 5757–5761 (1993). The cell extract was obtained from cells solubilised in a buffer (10 mM Tris HCl, 0.15 M NaCl, 0.04 t.i.u. aprotinin, 0.5% Nonidet-P40, pH 8.0) by centrifugation at 35,000 g for 30 minutes at 4° C. (to remove cell debris).
The DPP-IV assay was carried out as follows:
50 μl of substrate solution (AFC; AFC is amido-4-trifluoromethylcoumarin), final concentration 100 μM, were placed in black microtitre plates. 20 μl of assay buffer (final concentrations 50 mM Tris HCl pH 7.8, 50 mM NaCl, 1% DMSO) was pipetted in. The reaction was started by the addition of 30 μl of solubilised Caco-2 protein (final concentration 0.14 μg of protein per well). The test substances under investigation were typically added prediluted to 20 μl, while the volume of assay buffer was then reduced accordingly. The reaction was carried out at ambient temperature, the incubation period was 60 minutes. Then the fluorescence was measured in a Victor 1420 Multilabel Counter, with the excitation wavelength at 405 nm and the emission wavelength at 535 nm. Dummy values (corresponding to 0% activity) were obtained in mixtures with no Caco-2 protein (volume replaced by assay buffer), control values (corresponding to 100% activity) were obtained in mixtures without any added substance. The potency of the test substances in question, expressed as IC50 values, were calculated from dosage/activity curves consisting of 11 measured points in each case.

| Compound | IC50 [nM] |
| --- | --- |
| CC#CCn1c(N2CCC[C@@H](N)C2)nc2c1c(=O)n(Cc1nc3ccccc3c(C)[n+]1[O-])c(=O)n2C [Example 1, 1-[(4-methyl-3-oxy-quinazolin-2-yl)methyl]-3-methyl-7-(2-butyn-1-yl)-8-((R)-3-amino-piperidin-1-yl)-xanthine] | 2 |
| 1-[(1-oxy-quinolin-2-yl)methyl]-3-methyl-7-(2-butyn-1-yl)-8-((R)-3-amino-piperidin-1-yl)-xanthine [1(1)] | 1 |

The remaining lines, values ahead:

| IC50 [nM] | Compound |
| --- | --- |
| 4 | CC#CCn1c(N2CCC[C@@H](N)C2)nc2c1c(=O)n(Cc1c3ccccc3cc(C)[n+]1[O-])c(=O)n2C [1(2), 1-[(3-methyl-2-oxy-isoquinolin-1-yl)methyl]-3-methyl-7-(2-butyn-1-yl)-8-((R)-3-amino-piperidin-1-yl)-xanthine] |
| 2 | CC#CCn1c(N2CCC[C@@H](N)C2)nc2c1c(=O)n(Cc1nc3ccccc3c[n+]1[O-])c(=O)n2C [1(4), 1-[(3-oxy-quinazolin-2-yl)methyl]-3-methyl-7-(2-butyn-1-yl)-8-((R)-3-amino-piperidin-1-yl)-xanthine] |
| 6 | CC#CCn1c(N2CCC[C@@H](N)C2)nc2c1c(=O)n(Cc1c3ccccc3c3ccccc3[n+]1[O-])c(=O)n2C [1(3), 1-[(5-oxy-phenanthridin-6-yl)methyl]-3-methyl-7-(2-butyn-1-yl)-8-((R)-3-amino-piperidin-1-yl)-xanthine] |

Test system: rats
Assay: Tolerability in rats after oral administration
Assay type: in vivo
Conditions: oral administration of 10 mg/kg

| Compound | toxic side effects |
| --- | --- |
| CC#CCn1c(N2CCC[C@@H](N)C2)nc2c1c(=O)n(Cc1nc3ccccc3c(C)[n+]1[O-])c(=O)n2C [Example 1, 1-[(4-methyl-3-oxy-quinazolin-2-yl)methyl]-3-methyl-7-(2-butyn-1-yl)-8-((R)-3-amino-piperidin-1-yl)-xanthine] | no toxic side effects could be detected |
